From ChEMBL document CHEMBL4265876, “Natural Products with Heteroatom-Rich Ring Systems” (J Nat Prod, 2017)
pIC50: −log10 of the molar value. ≈ marks a conversion by molar mass, not a printed value.

Assays:
[1] = system: Clavibacter michiganensis; assay: Antibacterial activity against Clavibacter michiganensis; format: functional
[2] = system: Xanthomonas citri pv. malvacearum; assay: Antibacterial activity against Xanthomonas malvacearum; format: functional
[3] = system: Mycobacterium; assay: Antibacterial activity against Mycobacterium B5; format: functional
[4] = system: Ehrlich; assay: Antitumor activity against mouse Ehrlich carcinoma cells xenografted in white mouse assessed as growth inhibition at 0.2 mg/kg, ip for 7 days; format: functional; conditions: 168 h, read-out: GI
[5] = system: Ehrlich; assay: Antitumor activity against mouse Ehrlich carcinoma cells xenografted in white mouse assessed as growth inhibition at 50 mg/kg, ip for 7 days; format: functional; conditions: 168 h, read-out: GI
[6] = system: Ehrlich; assay: Antitumor activity against mouse Ehrlich carcinoma cells xenografted in white mouse assessed as growth inhibition at 20 mg/kg, ip for 7 days; format: functional; conditions: 168 h, read-out: GI
[7] = system: V79; assay: Cytotoxicity against chinese hamster V79 cells; format: cell-based; conditions: Cricetulus griseus
[8] = system: MDA-MB-468; assay: Cytotoxicity against human MDA-MB-468 cells; format: functional, cell-based
[9] = system: HL-60; assay: Cytotoxicity against human HL60 cells; format: functional, cell-based
[10] = system: HCT-116; assay: Cytotoxicity against human HCT116 cells; format: functional, cell-based
[11] = system: NCI-H460; assay: Cytotoxicity against human NCI-H460 cells; format: functional, cell-based
[12] = system: MDA-MB-231; assay: Cytotoxicity against human MDA-MB-231 cells; format: functional, cell-based
[13] = system: Ruegeria atlantica; assay: […] activity against Ruegeria atlantica assessed as inhibition zone at 50 ug/disk; format: functional; conditions: read-out: IZ
[14] = system: DLD-1; assay: Cytotoxicity against human DLD1 cells; format: functional, cell-based
[15] = system: ACHN; assay: Cytotoxicity against human ACHN cells; format: functional, cell-based
[16] = system: SW480; assay: Cytotoxicity against human SW480 cells by MTT assay; format: functional, cell-based
[17] = system: MCF7; assay: Cytotoxicity against human MCF7 cells by MTT assay; format: functional, cell-based
[18] = system: SMMC-7721; assay: Cytotoxicity against human SMMC7721 cells by MTT assay; format: functional, cell-based
[19] = system: A549; assay: Cytotoxicity against human A549 cells by MTT assay; format: functional, cell-based
[20] = system: HL-60; assay: Cytotoxicity against human HL60 cells by MTT assay; format: functional, cell-based
[21] = system: Candida albicans; assay: Antifungal activity against Candida albicans YO109; format: functional
[22] = system: Trichophyton rubrum; assay: Antifungal activity against Trichophyton rubrum; format: functional
[23] = system: Candida albicans; assay: Antifungal activity against Candida albicans SC5314; format: functional
[24] = system: Cryptococcus neoformans; assay: Antifungal activity against Cryptococcus neoformans; format: functional
[25] = system: Bacillus subtilis; assay: […] activity against Bacillus subtilis assessed as inhibition zone at 120 ug/disk; format: functional; conditions: read-out: IZ
[26] = system: P388; assay: Cytotoxicity against mouse P388 cells; format: functional, cell-based
[27] = system: Mycobacterium tuberculosis; assay: Antibacterial activity against Mycobacterium tuberculosis H37Rv; format: functional
[28] = system: Candida albicans; assay: Antifungal activity against Candida albicans assessed as inhibition zone at 120 ug/disk; format: functional; conditions: read-out: IZ

COc1nnc2nn(C)cnc1-2
MIC [1]: 5000 to 50000 µg/mL (≈ 30300 to 303000 µM)
MIC [2]: 5000 to 50000 µg/mL (≈ 30300 to 303000 µM)
MIC [3]: 5000 to 50000 µg/mL (≈ 30300 to 303000 µM)
inhibition in vivo at 0.2 mg/kg [4]: 40%

COc1[nH]nc2nncnc12
inhibition in vivo at 50 mg/kg [5]: 83%

COc1nnc2n(C)ncnc1-2 [PSEUDOIODININE]
inhibition in vivo at 20 mg/kg [6]: 64%

COc1c(SC)c(CCN(C)C)c2sc3c(CCN(C)C)c(SC)c(OC)c(OC)c3ssc2c1OC [LISSOCLINOTOXIN F]
pIC50 [7]: 6.55
IC50 [8]: 4.2 µg/mL (≈ 6.97 µM)
pIC50 [9]: 6.64

COc1c(SC)c(CCN(C)C)c2sc3c(OC)c(OC)c(SC)c(CCN(C)C)c3ssc2c1OC [LISSOCLIBADIN 2]
pIC50 [10]: 6.85
pIC50 [7]: 6.68
pIC50 [11]: 6.57
pIC50 [9]: 7.10
pIC50 [12]: 6.70
zone of inhibition at 50 µg/disc [13]: 28.2 mm
pIC50 [14]: 7.00
pIC50 [15]: 6.62

CN1CC[C@]23c4ccccc4N[C@H]1[C@@]21CCN2CN4c5ccccc5[C@@]56CCN(C)[C@@]45N(c4c6cccc41)[C@@H]23
pIC50 [16]: < 4.40
pIC50 [17]: < 4.40
pIC50 [18]: < 4.40
pIC50 [19]: < 4.40
pIC50 [20]: < 4.40

CC[C@H]1CC/C(=C2\C(=O)O[C@H](C)C2=O)O1
MIC80 [21]: 8 µg/mL (≈ 38.1 µM)
MIC80 [22]: 64 µg/mL (≈ 304 µM)
MIC80 [23]: 32 µg/mL (≈ 152 µM)
MIC80 [24]: 16 µg/mL (≈ 76.1 µM)

COc1cc(C2(c3ncc[nH]3)SSSCC2O)ccc1O (single isomer, unassigned; (+))
zone of inhibition at 120 µg/disc [25]: 4 mm
pIC50 [26]: 4.67
Activity [27]: 10%
zone of inhibition at 120 µg/disc [28]: 4 mm
